What all share (experiment): biochemical
Common to all, as to type: binding

For assay [1], the target named is T1, panel of 442 kinases (Homo sapiens, UniProt P21709).
T1 construct: purchased Ambit Biosciences (scanMAXX KINOMEscan)
T1 sequence (P21709 26-976): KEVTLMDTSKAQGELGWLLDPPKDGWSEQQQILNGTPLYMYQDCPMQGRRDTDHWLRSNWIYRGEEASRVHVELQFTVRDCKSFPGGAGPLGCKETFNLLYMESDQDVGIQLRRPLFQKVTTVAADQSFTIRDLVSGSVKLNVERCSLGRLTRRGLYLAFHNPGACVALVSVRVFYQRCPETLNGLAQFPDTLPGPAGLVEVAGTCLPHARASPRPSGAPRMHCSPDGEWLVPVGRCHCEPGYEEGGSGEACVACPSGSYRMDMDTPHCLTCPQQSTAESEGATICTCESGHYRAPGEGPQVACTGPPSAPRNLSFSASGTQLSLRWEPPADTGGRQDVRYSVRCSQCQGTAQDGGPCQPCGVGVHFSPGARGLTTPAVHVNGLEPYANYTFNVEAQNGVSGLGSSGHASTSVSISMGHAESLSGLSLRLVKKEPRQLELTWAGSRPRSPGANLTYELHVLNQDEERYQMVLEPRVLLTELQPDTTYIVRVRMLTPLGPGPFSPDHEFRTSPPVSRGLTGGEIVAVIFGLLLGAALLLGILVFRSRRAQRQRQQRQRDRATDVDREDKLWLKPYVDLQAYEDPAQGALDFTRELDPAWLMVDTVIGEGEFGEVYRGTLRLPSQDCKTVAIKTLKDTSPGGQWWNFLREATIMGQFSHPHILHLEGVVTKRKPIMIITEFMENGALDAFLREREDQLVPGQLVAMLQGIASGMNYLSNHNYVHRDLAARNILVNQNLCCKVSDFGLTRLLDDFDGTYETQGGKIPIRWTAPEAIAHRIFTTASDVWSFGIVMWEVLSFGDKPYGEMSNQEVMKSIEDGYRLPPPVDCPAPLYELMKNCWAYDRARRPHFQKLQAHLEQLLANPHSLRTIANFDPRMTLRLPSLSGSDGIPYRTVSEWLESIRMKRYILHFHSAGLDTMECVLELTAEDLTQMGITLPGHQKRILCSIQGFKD
The settings on record: EPHA1; for remaining activity at 1 µM: read-out: % of control at 1 µM.

Assay [2] deals with T2, panel of 442 kinases (Homo sapiens, UniProt P30530).
T2 construct: purchased Ambit Biosciences (scanMAXX KINOMEscan)
T2 sequence (P30530 26-894): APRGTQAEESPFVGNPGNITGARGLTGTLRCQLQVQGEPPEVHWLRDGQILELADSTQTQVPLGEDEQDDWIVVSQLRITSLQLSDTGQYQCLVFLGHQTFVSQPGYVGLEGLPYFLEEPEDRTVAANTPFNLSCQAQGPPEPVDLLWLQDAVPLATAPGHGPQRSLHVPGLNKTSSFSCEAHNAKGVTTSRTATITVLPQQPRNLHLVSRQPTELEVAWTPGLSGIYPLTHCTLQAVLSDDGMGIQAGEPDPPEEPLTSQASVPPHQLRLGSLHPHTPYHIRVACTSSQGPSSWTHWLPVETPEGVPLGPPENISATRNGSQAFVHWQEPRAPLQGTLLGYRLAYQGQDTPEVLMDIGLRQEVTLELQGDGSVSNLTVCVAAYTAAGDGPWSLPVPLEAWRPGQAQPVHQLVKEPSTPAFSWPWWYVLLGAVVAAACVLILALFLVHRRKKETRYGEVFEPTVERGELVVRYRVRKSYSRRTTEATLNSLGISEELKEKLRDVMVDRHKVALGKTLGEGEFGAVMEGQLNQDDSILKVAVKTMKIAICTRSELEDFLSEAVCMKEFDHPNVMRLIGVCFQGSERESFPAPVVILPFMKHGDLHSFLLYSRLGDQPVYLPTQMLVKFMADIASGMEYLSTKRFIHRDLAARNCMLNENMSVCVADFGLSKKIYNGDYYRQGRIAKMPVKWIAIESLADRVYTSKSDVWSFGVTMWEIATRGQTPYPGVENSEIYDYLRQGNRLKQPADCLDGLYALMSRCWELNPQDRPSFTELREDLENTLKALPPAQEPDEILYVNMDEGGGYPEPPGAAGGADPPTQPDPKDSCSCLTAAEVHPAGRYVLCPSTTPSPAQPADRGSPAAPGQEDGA
The conditions noted are these: AXL; for remaining activity at 1 µM: read-out: % of control at 1 µM.

The target in assay [3] is T3, panel of 442 kinases (Homo sapiens, UniProt O43293).
T3 construct: purchased Ambit Biosciences (scanMAXX KINOMEscan)
The settings on record: DAPK3; for remaining activity at 1 µM: read-out: % of control at 1 µM.

Assay [4] addresses T4, panel of 442 kinases (Homo sapiens, UniProt Q13237).
T4 construct: purchased Ambit Biosciences (scanMAXX KINOMEscan)
T4 sequence (Q13237 1-762): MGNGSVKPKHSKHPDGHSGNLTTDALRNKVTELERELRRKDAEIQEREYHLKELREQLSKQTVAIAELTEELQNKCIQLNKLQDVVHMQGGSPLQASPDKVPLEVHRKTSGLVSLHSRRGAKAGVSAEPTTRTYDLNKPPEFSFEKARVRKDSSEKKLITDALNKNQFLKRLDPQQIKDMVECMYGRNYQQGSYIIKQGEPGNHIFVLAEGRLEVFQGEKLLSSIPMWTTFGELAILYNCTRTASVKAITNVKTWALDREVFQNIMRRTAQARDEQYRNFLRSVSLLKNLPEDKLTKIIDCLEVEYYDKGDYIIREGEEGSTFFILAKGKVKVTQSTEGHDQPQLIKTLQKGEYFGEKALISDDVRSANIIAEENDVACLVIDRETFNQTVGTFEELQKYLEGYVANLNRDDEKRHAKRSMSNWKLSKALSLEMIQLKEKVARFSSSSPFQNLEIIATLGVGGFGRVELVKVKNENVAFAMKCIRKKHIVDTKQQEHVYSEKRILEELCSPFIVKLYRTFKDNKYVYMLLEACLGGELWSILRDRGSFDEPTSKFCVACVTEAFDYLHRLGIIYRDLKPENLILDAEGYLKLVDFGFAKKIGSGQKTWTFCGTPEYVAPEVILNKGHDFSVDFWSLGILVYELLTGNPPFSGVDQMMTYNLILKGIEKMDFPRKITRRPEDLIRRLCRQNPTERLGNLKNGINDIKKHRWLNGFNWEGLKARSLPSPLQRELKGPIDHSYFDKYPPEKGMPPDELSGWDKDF
The settings on record: kinase PRKG2; for remaining activity at 1 µM: read-out: PRKG2 (% of control at 1 µM).

The target of assay [5] is T5, panel of 442 kinases (Homo sapiens, UniProt P36894).
T5 construct: purchased Ambit Biosciences (scanMAXX KINOMEscan)
The conditions noted are these: BMPR1A; for remaining activity at 1 µM: read-out: % of control at 1 µM.

Assay [6] concerns the target T6, panel of 442 kinases (Homo sapiens, UniProt Q05655).
T6 construct: purchased Ambit Biosciences (scanMAXX KINOMEscan)
The settings on record: kinase PRKCD; for remaining activity at 1 µM: read-out: PRKCD (% of control at 1 µM).

Setting [7] is: 10 µM, read-out: % of control at 10 µM.

Our source for the remaining activity values is PMC5564600 (Oncotarget, 2017).

T6 sequence (Q05655 whole entry): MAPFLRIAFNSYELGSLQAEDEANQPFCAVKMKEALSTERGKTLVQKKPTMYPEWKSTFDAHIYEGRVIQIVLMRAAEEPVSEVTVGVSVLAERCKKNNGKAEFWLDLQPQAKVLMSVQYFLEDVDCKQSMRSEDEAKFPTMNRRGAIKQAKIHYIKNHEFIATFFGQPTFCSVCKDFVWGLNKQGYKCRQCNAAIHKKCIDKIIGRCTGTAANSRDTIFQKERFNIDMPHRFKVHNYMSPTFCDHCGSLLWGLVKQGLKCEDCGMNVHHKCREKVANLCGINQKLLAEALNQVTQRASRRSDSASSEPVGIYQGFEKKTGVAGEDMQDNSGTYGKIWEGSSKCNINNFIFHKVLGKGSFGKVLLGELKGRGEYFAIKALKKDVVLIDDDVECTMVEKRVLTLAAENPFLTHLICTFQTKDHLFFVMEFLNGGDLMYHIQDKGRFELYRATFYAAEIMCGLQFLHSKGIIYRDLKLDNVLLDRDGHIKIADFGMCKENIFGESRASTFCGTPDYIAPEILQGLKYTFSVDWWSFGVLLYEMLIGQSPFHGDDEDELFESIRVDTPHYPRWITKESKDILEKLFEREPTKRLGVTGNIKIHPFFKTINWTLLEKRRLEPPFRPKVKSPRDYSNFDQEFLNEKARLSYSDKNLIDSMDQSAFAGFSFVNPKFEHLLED
T5 sequence (P36894 24-532): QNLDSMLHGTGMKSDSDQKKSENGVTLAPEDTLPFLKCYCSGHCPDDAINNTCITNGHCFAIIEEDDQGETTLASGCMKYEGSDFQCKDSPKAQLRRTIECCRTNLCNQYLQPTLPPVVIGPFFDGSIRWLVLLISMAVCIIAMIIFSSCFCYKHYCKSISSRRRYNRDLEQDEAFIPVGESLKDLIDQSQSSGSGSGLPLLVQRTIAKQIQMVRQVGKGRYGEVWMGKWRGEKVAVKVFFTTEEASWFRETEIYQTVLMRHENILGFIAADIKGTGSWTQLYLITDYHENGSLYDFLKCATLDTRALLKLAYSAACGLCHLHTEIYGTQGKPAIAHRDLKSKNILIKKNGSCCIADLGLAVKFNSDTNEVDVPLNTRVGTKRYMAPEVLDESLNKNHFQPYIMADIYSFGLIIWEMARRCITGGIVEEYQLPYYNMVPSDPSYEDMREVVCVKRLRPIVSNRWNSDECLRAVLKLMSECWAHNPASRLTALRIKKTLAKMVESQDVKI
T3 sequence (O43293 whole entry): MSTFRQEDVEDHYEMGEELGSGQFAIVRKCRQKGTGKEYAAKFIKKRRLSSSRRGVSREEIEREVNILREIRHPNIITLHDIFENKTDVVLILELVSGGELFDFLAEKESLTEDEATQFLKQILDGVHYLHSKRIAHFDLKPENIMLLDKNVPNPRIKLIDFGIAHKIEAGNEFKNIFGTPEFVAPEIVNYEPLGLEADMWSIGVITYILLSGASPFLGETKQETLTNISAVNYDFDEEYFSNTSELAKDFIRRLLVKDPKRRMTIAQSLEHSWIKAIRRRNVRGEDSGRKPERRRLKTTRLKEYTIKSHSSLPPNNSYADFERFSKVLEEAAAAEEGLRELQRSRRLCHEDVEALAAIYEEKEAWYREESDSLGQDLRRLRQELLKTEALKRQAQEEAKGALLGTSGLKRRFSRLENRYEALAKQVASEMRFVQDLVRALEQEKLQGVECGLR

As to `Nc1cc(C(F)(F)F)c(-c2cc(N3CCOCC3)nc(N3CCOCC3)n2)cn1` [Buparlisib], the remaining activity at 1 µM on panel of 442 kinases [1] was found to be 90%; at panel of 442 kinases [2], 89%; at panel of 442 kinases [3], 100%; on panel of 442 kinases [4], 93%; at panel of 442 kinases [5], 100%; on panel of 442 kinases [6] it was 100%. The remaining activity at 10 µM at panel of 442 kinases [1] (setting [7]) was 100%; at panel of 442 kinases [2] (setting [7]), 100%; on panel of 442 kinases [3] (setting [7]), 100%; at panel of 442 kinases [4] (10 µM, read-out: PRKG2 (% of control at 10 µM)), 100%; at panel of 442 kinases [5] (setting [7]), 100%; on panel of 442 kinases [6] (10 µM, read-out: PRKCD (% of control at 10 µM)), 100%.
Regarding `Cn1c(=O)n(-c2ccc(C(C)(C)C#N)cc2)c2c3cc(-c4cnc5ccccc5c4)ccc3ncc21` [Dactolisib, 2-methyl-2-[4-(3-methyl-2-oxo-8-quinolin-3-yl-2,3-dihydroimidazo[4,5-c]quinolin-1-yl)-phenyl] propionitrile], the remaining activity at 1 µM stood at 100% at panel of 442 kinases [1]; 48% on panel of 442 kinases [2]; 100% at panel of 442 kinases [3]; 84% on panel of 442 kinases [4]; 98% on panel of 442 kinases [5]; 86% on panel of 442 kinases [6].
`FC(F)c1nc2ccccc2n1-c1nc(N2CCOCC2)nc(N2CCOCC2)n1` [ZSTK474, 2-(difluoromethyl)-1-[4,6-di(4-morpholinyl)-1,3,5-triazin-2-yl]-1H-benzimidazole]: the remaining activity at 1 µM on panel of 442 kinases [1] was found to be 99%; on panel of 442 kinases [2], 93%; on panel of 442 kinases [3], 100%; at panel of 442 kinases [4], 95%; at panel of 442 kinases [5], 58%; at panel of 442 kinases [6] it was 100%.
`COc1ncc(-c2ccc3nccc(-c4ccnnc4)c3c2)cc1NS(=O)(=O)c1ccc(F)cc1F` [Omipalisib]: the remaining activity at 1 µM at panel of 442 kinases [1] was 97%; on panel of 442 kinases [2], 100%; at panel of 442 kinases [3], 100%; at panel of 442 kinases [4] it was 96%; at panel of 442 kinases [5] it was 100%; at panel of 442 kinases [6], 74%.
